Reference: patent US20250152627A1, “COMPOSITIONS AND METHODS FOR ENHANCING IMMUNE CELL FUNCTION USING MODIFIED CELLS WITH GLYCOCALYX EDITING ENZYMES” (Cornell University, priority 2021, published 2025)

Columns and labels:
Format in all cases: cell-based
1E7 cells = test: Ring-SAIM glycocalyx material thickness, wild-type 1E7 cells; conditions: wild-type 1E7 cells, 1,000 ng/mL doxycycline induction; TD139 at 10 μm
Description: Silicon wafers with ˜1900 nm thermal oxide (Addison Engineering) were diced into 7 mm by 7 mm chips, and the oxide layer thickness for each chip was measured with a FilMetrics F50-EXR. Prior to use, the chips were then cleaned with 1:1 methanol and hydrochloric acid for 15 minutes, followed by 1 minutes in a plasma cleaner (Harrick Plasma, PDC-001). The chips were incubated with 4% (v/v) (3-mercaptopropyl)trimethoxysilane in absolute ethanol for 30 minutes at room temperature. After washing with absolute ethanol, the chips were subsequently incubated with 4 mM 4-maleimidobutyric acid N-hydroxysuccinimide ester in absolute ethanol for 30 minutes and rinsed with PBS. 50 μg/mL human plasma fibronectin in PBS was incubated with the functionalized chips overnight at 4° C. for conjugation. Cells were seeded onto the chips at 2×10^4 cm^−2 in full culture medium with varying doxycycline concentrations and incubated for 24 hours. Cells expressing different length of Muc1 were labelled with GFP nanobody conjugated to Alexa Fluor 647 in MCF10A growth media for 10 minutes at 37° C. Cells were labelled with MemGlow dye or CellBrite Steady 550 in serum-free, phenol red-free DMEM/F12 for 10 minutes at 37° C. Sample were then rinsed 3× in PBS, inverted into a 35 mm glass-bottom imaging dish containing imaging buffer (MemGlow dye or CellBrite dye: serum-free, phenol red-free DMEM/F12, Alexa Fluor 647-conjugated GFP nanobody: phenol red-free DMEM/F12 supplemented with 5% horse serum, 20 ng/mL EGF, […], 500 ng/mL hydrocortisone, 100 ng/mL cholera toxin and 1× penicillin/streptomycin) and imaged at 37° C. […]
(§1) Scanning angle interference microscopy (SAIM) was conducted on a custom circle-scanning microscope.^40 The core of the setup was an inverted fluorescence microscope (Ti-E, Nikon). […] Fluorescence emission was collected with a quad band filter cube and single band filters (TRF89901-EMv2, Chroma) mounted in a motorized filter wheel (Sutter). […]

cell surface Muc1 = test: Fluorescence recovery after photobleaching (FRAP) of Muc1-GFP; conditions: 1E7 GCNT1 OE with 10 μM recombinant human galectin-1
Description: FRAP experiments were performed by using a Zeiss i880 confocal microscope with 63×N.A. 1.4 Oil immersion lens. Five pre-bleached images were firstly taken and photobleaching was performed with 488 nm laser for about 10 seconds to bleach a target area of 2.55 μm×2.55 μm. 1E7 clone (n=11) and 1E7 GCNT1 overexpression (n=10) were used to measure mobile fraction of Muc1-GFP. 10 μM recombinant human galectin-1 was incubated with 1E7 GCNT1 cells for 10 minutes at 37° C. (n=9). Intensity profiles were corrected by normalizing to the time-course decay of GFP signal in non-bleached area by using MATLAB code from Advanced Imaging Center (https://www.mathworks.com/matlabcentral/fileexchange/47327-frap-zip)

[1] = tested on: 1E7 cells overexpressing GCNT1; test: Ring-SAIM glycocalyx material thickness, GCNT1 overexpressing 1E7 cells; conditions: 1E7 cells overexpressing GCNT1, treatment with recombinant galectin
Description: Silicon wafers with ˜1900 nm thermal oxide (Addison Engineering) were diced into 7 mm by 7 mm chips, and the oxide layer thickness for each chip was measured with a FilMetrics F50-EXR. Prior to use, the chips were then cleaned with 1:1 methanol and hydrochloric acid for 15 minutes, followed by 1 minutes in a plasma cleaner (Harrick Plasma, PDC-001). The chips were incubated with 4% (v/v) (3-mercaptopropyl)trimethoxysilane in absolute ethanol for 30 minutes at room temperature. After washing with absolute ethanol, the chips were subsequently incubated with 4 mM 4-maleimidobutyric acid N-hydroxysuccinimide ester in absolute ethanol for 30 minutes and rinsed with PBS. 50 μg/mL human plasma fibronectin in PBS was incubated with the functionalized chips overnight at 4° C. for conjugation. Cells were seeded onto the chips at 2×10^4 cm^−2 in full culture medium with varying doxycycline concentrations and incubated for 24 hours. […]
as §1

| Compound | change of the material thickness of the glycocalyx (1E7 cells) | effect on mobility and mobile fraction of cell surface Muc1 (cell surface Muc1) | decrease of glycocalyx thickness compared to untreated cells [1] [nm] |
| --- | --- | --- | --- |
| OC[C@H]1O[C@@H](S[C@@H]2O[C@H](CO)[C@H](O)[C@H](n3cc(-c4cccc(F)c4)nn3)[C@H]2O)[C@H](O)[C@@H](n2cc(-c3cccc(F)c3)nn2)[C@H]1O [TD139] | did not significantly change | – | – |
| recombinant galectin-1: recombinant human galectin-1 (LGALS1) expressed in E. coli | did not significantly change | does not significantly affect | 19.4 |
| recombinant galectin-3: recombinant human galectin-3 (LGALS3) expressed in E. coli | did not significantly change | – | 9.5 |
